Measurements: the supplement of paper PMC6045584
± gives the standard deviation of the averaged measurements.

Compound: C=CCNC1=C2C[C@@H](C)C[C@H](OC)[C@H](O)[C@@H](C)/C=C(\C)[C@H](OC(N)=O)[C@@H](OC)/C=C\C=C(/C)C(=O)NC(=CC1=O)C2=O [17-AAG]
Experiment: surviving fraction relative to DMSO-only wells; higher = less growth inhibition
Conditions: exposure time: 5 days
Outline: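 Inhibitors at 0.5, 1, 5, 10, 50, 100, 500 and 1000 nM were applied continuously for five days to tumour cell lines seeded in log phase at 250–500 cells per well in 384-well plates 24 hours earlier. Viability was measured by CellTiter-Glo luminescence and expressed as surviving fraction relative to the median of DMSO-only wells. Luminescence was taken after 10 minutes at room temperature.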

Row | Test System | surviving fraction (0.5 nM) | surviving fraction (1 nM) | surviving fraction (5 nM) | surviving fraction (10 nM) | surviving fraction (50 nM) | surviving fraction (100 nM) | surviving fraction (500 nM) | surviving fraction (1000 nM)
1 | SUM149.B1*.S BREAST | 0.9335 ± 0.0026 | 0.893 ± 0.032 | 0.905 ± 0.038 | 0.83 ± 0.017 | 0.201 ± 0.021 | 0.131 ± 0.018 | 0.083 ± 0.019 | 0.0832 ± 0.014
2 | MDAMB134 BREAST | 0.609 ± 0.036 | 0.648 ± 0.053 | 0.573 ± 0.066 | 0.667 ± 0.051 | 0.574 ± 0.018 | 0.519 ± 0.011 | 0.524 ± 0.012 | 0.47 ± 0.018
3 | YAMATO SYNOVIAL | 0.976 ± 0.059 | 0.815 ± 0.022 | 0.936 ± 0.084 | 0.89 ± 0.039 | 1.22 ± 0.039 | 0.735 ± 0.064 | 0.357 ± 0.0093 | 0.318 ± 0.0064
4 | C33A CERVIX | 1.22 ± 0.12 | 1.04 ± 0.14 | 1.4 ± 0.13 | 1.2 ± 0.09 | 1.31 ± 0.068 | 1.16 ± 0.1 | 1.061 ± 0.0074 | 0.124 ± 0.016
5 | MDAMB453 BREAST | 1.01 ± 0.017 | 1.04 ± 0.03 | 0.842 ± 0.057 | 0.356 ± 0.014 | 0.052 ± 0.027 | 0.048 ± 0.012 | 0.0367 ± 0.0049 | 0.042 ± 0.018
6 | VCAP PROSTATE | 0.94 ± 0.075 | 0.969 ± 0.054 | 1.12 ± 0.17 | 1.03 ± 0.12 | 0.683 ± 0.066 | 0.19 ± 0.018 | 0.167 ± 0.016 | 0.183 ± 0.03
7 | HOS BONE | 0.924 ± 0.029 | 0.932 ± 0.037 | 0.934 ± 0.027 | 0.93 ± 0.017 | 0.914 ± 0.024 | 0.442 ± 0.11 | 0.0503 ± 0.0011 | 0.0427 ± 0.0032
8 | VP229 BREAST | 0.808 ± 0.1 | 0.782 ± 0.031 | 0.842 ± 0.076 | 0.773 ± 0.085 | 0.641 ± 0.089 | 0.387 ± 0.042 | 0.101 ± 0.013 | 0.0917 ± 0.012
9 | HCT15 LARGE INTESTINE | 0.858 ± 0.04 | 0.852 ± 0.011 | 0.864 ± 0.029 | 0.792 ± 0.078 | 0.479 ± 0.0076 | 0.264 ± 0.0079 | 0.072 ± 0.0027 | 0.0573 ± 0.0025
10 | HOSMNG BONE | 0.981 ± 0.039 | 0.977 ± 0.072 | 0.972 ± 0.051 | 0.978 ± 0.068 | 1.08 ± 0.028 | 0.506 ± 0.014 | 0.14 ± 0.014 | 0.11 ± 0.0031
11 | HUO3N1 BONE | 0.881 ± 0.025 | 0.888 ± 0.042 | 0.97 ± 0.022 | 0.872 ± 0.046 | 0.591 ± 0.046 | 0.443 ± 0.025 | 0.359 ± 0.026 | 0.316 ± 0.036
12 | KPD BONE | 0.907 ± 0.085 | 0.894 ± 0.05 | 0.913 ± 0.01 | 0.828 ± 0.084 | 0.246 ± 0.018 | 0.111 ± 0.011 | 0.0627 ± 0.0015 | 0.0607 ± 0.0045
13 | MDAMB361 BREAST | 0.765 ± 0.078 | 0.728 ± 0.036 | 0.454 ± 0.036 | 0.332 ± 0.047 | 0.278 ± 0.023 | 0.267 ± 0.015 | 0.324 ± 0.014 | 0.313 ± 0.038
14 | JURKAT HAEMATOPOIETIC AND LYMPHOID TISSUE | 1.02 ± 0.014 | 0.997 ± 0.037 | 1 ± 0.023 | 0.998 ± 0.014 | 0.951 ± 0.032 | 0.886 ± 0.021 | 0.132 ± 0.0082 | 0.0577 ± 0.0015
15 | SCC003 HEADNECK | 0.839 ± 0.058 | 0.89 ± 0.024 | 0.882 ± 0.04 | 0.789 ± 0.14 | 1.01 ± 0.074 | 0.396 ± 0.012 | 0.195 ± 0.017 | 0.0693 ± 0.0095
